Laboratory results: patent US20240109897A1, “MODULATORS OF FPR1 AND METHODS OF USING THE SAME” (BEIJING TIANTAN HOSPITAL, priority 2021, published 2024)

Assays:
FPR1 = target: T1, FPR1 (UniProt P21462); assay: fMLP-FPR1 mediated calcium signaling assay in FPR1-overexpressing 293T cells; assay type: cell-based, human or mouse; conditions: inhibition of fMLP-FPR1 mediated intracellular calcium change; hFPR1 or mFPR1 overexpressing 293T cells; 10 min preincubation; INDO-1 AM, FACS
T1 sequence (P21462 1-350): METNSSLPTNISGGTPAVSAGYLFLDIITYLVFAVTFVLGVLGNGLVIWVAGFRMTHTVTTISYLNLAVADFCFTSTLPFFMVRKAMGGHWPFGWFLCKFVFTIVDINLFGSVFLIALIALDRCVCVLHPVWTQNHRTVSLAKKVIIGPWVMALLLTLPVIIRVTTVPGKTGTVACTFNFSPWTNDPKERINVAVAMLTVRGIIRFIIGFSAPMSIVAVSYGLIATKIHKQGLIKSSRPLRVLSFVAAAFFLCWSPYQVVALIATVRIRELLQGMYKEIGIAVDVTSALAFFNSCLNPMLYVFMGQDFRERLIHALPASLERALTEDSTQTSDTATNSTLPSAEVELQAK
Procedure: The effects of the compounds of this disclosure on regulating the FPR1-mediated cell signaling were measured by monitoring the cellular calcium level change, as illustrated by the exemplary examples in Table 2. The dose response of the illustrated examples are reported categorically using the following ranking criteria: *** (IC50≤100 nM); ** (IC50≥100 to ≤1000 nM); * (IC50≥1000 to ≤10,000 nM); N.D.—not detected.
The coding DNA sequence (CDS) of human FPR1 (NM_001193306) and mouse FPR1 (NM_013521) were cloned and inserted to the lentivirus vector GV367 (Vector information:http://www.genechem.com.cn/index/supports/tool_search.html?keywords=GV367) under the conduction of pCMV promoter. 293T cells were cultured in H-DMEM supplemented with 10% FBS and 1% penicillin-streptomycin (PS) at 37° C. in 5% CO2 Incubator. 293T cells were transfected with lentivirus vector GV367 containing the CDS of human or mouse FPR1 for 24 h and then cultured with complete medium for another 48 h. At 72 h after transfected, cells were passaged, and 5 μg/ml puromycin was added to screen FPR1-transfected 293T cells. The overexpression of human or mouse FPR1 in 293 T cells were detected by immunostaining with anti-mouse or human FPR1 antibodies (Biolegend or Antibody Online).
Cultured hFPR1 or mFPR1 overexpressing 293T cells were labeled with 1 μM INDO-1 AM calcium sensor dye (eBioscience) for 30 min at 37° C. After washed with 1×PBS, cells were resuspended with H-DMEM containing 3% FBS, and were maintained on ice prior to the measurement of intracellular calcium concentration. To measure the inhibitory potency of designed potential FPR1 antagonists, hFPR1 or mFPR1 overexpressing 293T cells were incubated with the compound for 10 min at room temperature. The cytoplasmic calcium levels were then measured by FACS Aria III at 37° C. prior to and after the stimulation of fMLP. We defined the immunofluorescence intensity of indo-1 AM before adding fMLP as the basal value, and the intensity at the peak immunofluorescence reduction after adding fMLP as minimum value for each sample. The change of intracellular calcium was calculated as follow: (basal value−minimum value)/basal value×100%. The IC50 of each compound in inhibiting fMLP-FPR1 mediated intracellular calcium concentration in 293T cells were automatically calculated with Prism 8.0.2 software (GraphPad) after inputting a series of change of intracellular calcium at multiple concentration gradients (from 0 nM to 100 μM).

ICH mice [1] = assay: MRI lesion, hematoma and perihematomal edema volume in intracerebral hemorrhage (ICH) mouse model; assay type: in vivo; conditions: 5 mg/kg/daily i.p., first dose 1 h after ICH onset, vs vehicle
From the text: (§1) The intracerebral hemorrhage (ICH) model in mice was used to illustrate the protective benefits of the compounds of this disclosure, and FIG. 1 depicts the procedure in preparing this model. ICH was induced in C57 B/L6 male mice by the injection of an autologous blood or collagenase as previously described (Lauer et al., Circulation 124: 1654-1662 (2011); Rynkowski et al., Nat. Protoc. 3:122-128 (2008)). Mice were anesthetized using isoflurane inhalation and fixed on a stereotactic frame. A burr hole was drilled on the right side of the skull at 2.3 mm lateral to the midline and 0.5 mm anterior to the bregma. For the autologous blood model, 30 μl of non-heparinized blood was withdrawn from the angular vein. The first 5 μl blood was injected at a depth of 3 mm beneath the hole, and the rest 25 μl blood were injected at 3.7 mm beneath the hole with a rate of 1 μl/min. In the collagenase model, 0.038 U of the bacterial collagenase (in 0.5 μl saline) was infused to the striatum (0.5 mm anterior, 2.3 mm right lateral, and 3.5 mm deep relative to bregma) at a speed of 0.5 μl/min. Mice on the sham control were injected with an equal volume of saline. Throughout the procedure, the body temperature was maintained at 37° C. with a homeothermic blanket. After the surgery, mice were under observation with free access to food and water. […]
The total lesion volume was measured on the 7T small-animal MM scanner (Bruker, Corp., USA) as described (Li et al., 2017). The T2-weighted water imaging was recorded with following parameters (repetition time (TR)=4500 ms, echo time (TE)=65.5 ms, field of view (FOV)=28×28 mm^2, image matrix=256×256, at 0.5-mm slice thickness). […] The volumes were manually outlined and calculated by multiplying the sum of the volume by the distance between sections (0.5 mm) using MIPAV software. PHE volumes were calculated as total lesion volume minus hematoma volume. MRI data were analyzed by two investigators blinded to experimental groups.

ICH mice [2] = assay: Brain water content in ICH mouse model; assay type: in vivo; conditions: 5 mg/kg/daily i.p., first dose 1 h after ICH onset, 24 h, vs vehicle
From the text: as §1
Brain water content was measured at day 1 after ICH. […]

IC50 (FPR1): 100 to 1000 nM
Structure (SMILES): Cc1ccc(O)c(-c2[nH]nc3c2C(c2ccc(C(F)(F)F)cc2)N(C2CCOCC2)C3=O)c1 (racemic) [Compound 1, Rac-3-(2-hydroxy-5-methylphenyl)-5-(tetrahydro-2H-pyran-4-yl)-4-(4-(trifluoromethyl)phenyl)-4,5-dihydropyrrolo[3,4-c]pyrazol-6(2H)-one]
perihematomal edema (PHE) size (ICH mice [1]): significantly reduced
total brain water content (ICH mice [2]): significantly reduced
